Measured values from US8217055B2, “Pyrido-pyrazine derivatives useful as herbicidal compounds” (Syngenta Crop Protection LLC, priority 2006, dated 2012).

How the values were obtained:
Test in all cases: Example B2 herbicidal action, post-emergence, pots in glasshouse, evaluated after 13 days (10=total damage to plant; 0=no damage to plant)
Assay type in all cases: in vivo
Echinochloa crus-galli = test system: Echinochloa crus-galli
Procedure: (§1) Seeds of a variety of test species were sown in standard soil in pots. After 8 days cultivation (post-emergence) under controlled conditions in a glasshouse (at 24/16° C., day/night; 14 hours light; 65% humidity), the plants were sprayed with an aqueous spray solution derived from the formulation of the technical active ingredient in acetone/water (50:50) solution containing 0.5% Tween 20 (polyoxyethelyene sorbitan monolaurate, CAS RN 9005-64-5). The test plants were then grown in a glasshouse under controlled conditions in a glasshouse (at 24/16° C., day/night; 14 hours light; 65% humidity) and watered twice daily. After 13 days, the test was evaluated (10=total damage to plant; 0=no damage to plant).

Ipomea hederaceae = test system: Ipomea hederaceae
Procedure: as §1

Setaria faberi = test system: Setaria faberi
Procedure: as §1

Amaranthus retroflexus = test system: Amaranthus retroflexus
Procedure: as §1

Solanum nigrum = test system: Solanum nigrum
Procedure: as §1

Row | SMILES | ECHCG damage score (10=total damage to plant; 0=no damage to plant) (Echinochloa crus-galli; rate 1000 g/ha) | IPOHE damage score (10=total damage to plant; 0=no damage to plant) (Ipomea hederaceae; rate 1000 g/ha) | SETFA damage score (10=total damage to plant; 0=no damage to plant) (Setaria faberi; rate 1000 g/ha) | AMARE damage score (10=total damage to plant; 0=no damage to plant) (Amaranthus retroflexus; rate 1000 g/ha) | SOLNI damage score (10=total damage to plant; 0=no damage to plant) (Solanum nigrum; rate 1000 g/ha) | ECHCG damage score (10=total damage to plant; 0=no damage to plant) (Echinochloa crus-galli; rate 250 g/ha) | IPOHE damage score (10=total damage to plant; 0=no damage to plant) (Ipomea hederaceae; rate 250 g/ha) | SETFA damage score (10=total damage to plant; 0=no damage to plant) (Setaria faberi; rate 250 g/ha) | AMARE damage score (10=total damage to plant; 0=no damage to plant) (Amaranthus retroflexus; rate 250 g/ha) | SOLNI damage score (10=total damage to plant; 0=no damage to plant) (Solanum nigrum; rate 250 g/ha)
1 | CC(C)C(=O)Oc1c(-c2c(Cl)cccc2C(F)(F)F)c(=O)n(CC(F)F)c2nccnc12 [A41] | 8 | 9 | 9 | 10 | 10 | – | – | – | – | –
2 | CC(C)(C)C(=O)Oc1c(-c2cc(Cl)ccc2Cl)c(=O)n(CC(F)F)c2nccnc12 [A42] | 6 | 9 | 7 | 10 | 10 | – | – | – | – | –
3 | CC(C)(C)C(=O)Oc1c(-c2cc(C(F)(F)F)ccc2C(F)(F)F)c(=O)n(CC(F)F)c2nccnc12 [A43] | 8 | 9 | 9 | 10 | 9 | – | – | – | – | –
4 | COc1cc(F)c(F)cc1-c1c(OC(=O)C(C)(C)C)c2nccnc2n(CC(F)F)c1=O [A44] | 7 | 6 | 9 | 9 | 10 | – | – | – | – | –
5 | CCc1ccccc1-c1c(OC(=O)C(C)C)c2nccnc2n(CC(F)F)c1=O [A45] | 5 | 9 | 8 | 10 | 10 | – | – | – | – | –
6 | O=c1c(-c2cc(C(F)(F)F)ccc2Cl)c(O)c2nccnc2n1CC(F)F [B3] | – | – | – | – | – | 7 | 8 | 7 | 10 | 9
7 | CCc1cc(C)cc(CC)c1-c1c(O)c2nccnc2n(CC(F)F)c1=O [B4] | 8 | 10 | 9 | 7 | 10 | – | – | – | – | –
8 | Cc1cc(C)c(-c2c(O)c3nccnc3n(CC(F)F)c2=O)c(C)c1 [B5] | 8 | 10 | 8 | 7 | 10 | – | – | – | – | –
9 | O=c1c(-c2c(F)ccc(Br)c2Cl)c(O)c2nccnc2n1CC(F)F [B6] | 8 | 10 | 8 | 10 | 10 | – | – | – | – | –
10 | O=c1c(-c2cc(F)ccc2Cl)c(O)c2nccnc2n1CC(F)F [B7] | 7 | 9 | 7 | 10 | 9 | – | – | – | – | –
11 | COc1ccc(OC(F)(F)F)cc1-c1c(O)c2nccnc2n(CC(F)F)c1=O [B8] | 9 | 9 | 9 | 10 | 9 | – | – | – | – | –
12 | O=c1c(-c2c(F)ccc([N+](=O)[O-])c2Cl)c(O)c2nccnc2n1CC(F)F [B9] | 8 | 8 | 7 | 9 | 9 | – | – | – | – | –
13 | O=c1c(-c2cc(Cl)ccc2C(F)(F)F)c(O)c2nccnc2n1CC(F)F [B10] | 9 | 10 | 9 | 10 | 10 | – | – | – | – | –
14 | O=c1c(-c2c(Cl)ccc(Cl)c2Cl)c(O)c2nccnc2n1CC(F)F [B11, 5-(2,2-difluoro-ethyl)-8-hydroxy-7-(2,3,6-trichloro-phenyl)-5H-pyrido[2,3-b]pyrazin-6-one] | 8 | 10 | 9 | 10 | 10 | – | – | – | – | –
15 | COc1ccc(Br)cc1-c1c(O)c2nccnc2n(CC(F)F)c1=O [B12] | 6 | 6 | 6 | 9 | 9 | – | – | – | – | –
16 | O=c1c(-c2c(Cl)cccc2C(F)(F)F)c(O)c2nccnc2n1CC(F)F [B13] | 9 | 10 | 9 | 10 | 10 | – | – | – | – | –
17 | O=c1c(-c2c(F)ccc(Cl)c2Cl)c(O)c2nccnc2n1CC(F)F [B14] | 6 | 10 | 7 | 10 | 10 | – | – | – | – | –
18 | CC(C)(C)C(=O)Oc1c(-c2c(F)ccc(F)c2Cl)c(=O)n(CC(F)(F)F)c2nccnc12 [C8, 2,2-dimethyl-propionic acid 7-(2-chloro-3,6-difluoro-phenyl)-5-(2,2,2-trifluoro-ethyl)-6-oxo-5,6-dihydro-pyrido[2,3-b]pyrazin-8-yl ester] | 1 | 10 | 4 | 10 | 10 | – | – | – | – | –
19 | CC(C)(C)C(=O)Oc1c(-c2c(F)ccc(F)c2Cl)c(=O)n(CCF)c2nccnc12 [C9, 2,2-dimethyl-propionic acid 7-(2-chloro-3,6-difluoro-phenyl)-5-(2-fluoro-ethyl)-6-oxo-5,6-dihydro-pyrido[2,3-b]pyrazin-8-yl ester] | 0 | 5 | 0 | 7 | 4 | – | – | – | – | –
20 | CC(C)C(=O)Oc1c(-c2c(F)ccc(F)c2Cl)c(=O)n(CC(F)(F)F)c2nccnc12 [C10] | 3 | 10 | 6 | 10 | 10 | – | – | – | – | –
21 | CC(C)(C)C(=O)Oc1c(-c2c(F)ccc(F)c2Cl)c(=O)n(CCC=C(F)F)c2nccnc12 [C11] | 0 | 0 | 0 | 5 | 2 | – | – | – | – | –
22 | CC(C)(C)C(=O)Oc1c(-c2c(F)ccc(F)c2Cl)c(=O)n(CCC(F)=C(F)F)c2nccnc12 [C12] | 0 | 1 | 0 | 6 | 3 | – | – | – | – | –
23 | CC(C)(C)C(=O)Oc1c(-c2c(F)ccc(F)c2Cl)c(=O)n(CC=C(Cl)Cl)c2nccnc12 [C13] | 0 | 1 | 0 | 0 | 3 | – | – | – | – | –
24 | CC(C)C(=O)Oc1c(-c2c(F)ccc(F)c2Cl)c(=O)n(CC=C(Cl)Cl)c2nccnc12 [C14] | 0 | 1 | 0 | 8 | 8 | – | – | – | – | –
25 | O=C1c2nccnc2N(CC(F)(F)F)C(=O)C1c1c(F)ccc(F)c1Cl (stereo not shown) [D1] | 5 | 10 | 6 | 10 | 10 | – | – | – | – | –
26 | O=C1c2nccnc2N(CCF)C(=O)C1c1c(F)ccc(F)c1Cl (stereo not shown) [D2] | 1 | 5 | 2 | 6 | 7 | – | – | – | – | –
